Assay results from patent US10322191B2, “Targeted conjugates and particles and formulations thereof” (TARVEDA THERAPEUTICS, INC., priority 2014, dated 2019).
Read-outs that look alike come from different tables or passages of the source. Bridge positions count the residues as written; N and C are the ends. Square brackets hold non-standard residues; d marks the D form. Peptide text beside a SMILES is read from it. * marks the point of attachment. NH(CH2)2SS(DM1) = COc1cc2cc(c1Cl)N(C)C(=O)C[C@H](OC(=O)[C@H](C)N(C)C(=O)CCSSCCN*)[C@]1(C)O[C@H]1[C@H](C)[C@@H]1C[C@@](O)(NC(=O)O1)[C@H](OC)/C=C/C=C(\C)C2; X1 = COc1cc2cc(c1Cl)N(C)C(=O)C[C@H](OC(=O)[C@H](C)N(C)C(=O)CCS*)[C@]1(C)O[C@H]1[C@H](C)[C@@H]1C[C@@](O)(NC(=O)O1)[C@H](OC)/C=C/C=C(\C)C2; Mpa = O=C(O)CCS

Test system: NCI-H524 (ATCC) human lung cancer cells
Assay type: cell-based
Conditions: Table 15
Procedure: Conjugates were assessed in an in vitro assay evaluating inhibition of cell proliferation. NCI-H524 (ATCC) human lung cancer cells were plated in 96 well, V-bottomed plates (Costar) at a concentration of 5,000 cells/well and 24 hours later were treated with compound for 2 hours and further incubated 70 hours. Compound starting dose was 20 μM and three-fold serial dilutions were done for a total of ten points. After 2 hours of treatment, cells were spun down, the drug containing media was removed, and fresh complete medium was added and used to resuspend the cells, which were spun again. After removal of the wash media, the cells were resuspended in complete medium, then transferred into white walled, flat bottomed 96 well plates. […] Proliferation was measured using CellTiter Glo reagent using the standard protocol (Promega) and a Glomax multi+detection system (Promega). Percent proliferation inhibition was calculated using the following formula: % inhibition=(control-treatment)/control*100. Control is defined as vehicle alone. IC50 curves were generated using the nonlinear regression analysis (four parameter) with GraphPad Prism 6.
Conjugates of the present invention were assessed in an in vitro assay evaluating inhibition of cell proliferation. NCI-H524 (ATCC) human lung cancer cells were plated in 96 well, V-bottomed plates (Costar) at a concentration of 5,000 cells/well. 24 hours later, cells were treated with either conjugate for 2 hours and further incubated 70 hours, or for octreotide competition experiments, treated with 100 μM octreotide for 30 min, and then treated with conjugate for 2 hours, and further incubated for 70 hours. Conjugate starting dose was 20 μM and three fold serial dilutions were done for a total of ten points. After 2 hours of treatment, cells were spun down, the drug containing media was removed, and fresh complete medium was added and used to resuspend the cells, which were spun again. After removal of the wash media, the cells were resuspended in complete medium, then transferred into white walled, flat bottomed 96 well plates. […] Proliferation was measured using CellTiter Glo reagent using the standard protocol (Promega) and a Glomax multi+detection system (Promega). Percent proliferation inhibition was calculated using the following formula: % inhibition=(control-treatment)/control*100. Control is defined as vehicle alone. IC50 curves were generated using the nonlinear regression analysis (four parameter) with GraphPad Prism 6.
Conjugates of the present invention were tested for their activity dependence on the somatostatin receptor. Active agent Z in the conjugate was selected from auristatin, carbazitaxel, DM1, doxorubicin, platinum, SN-38 and vinblastine. Active agent Z is connected to octreotide with various linkers. Proliferation IC50 values of the conjugates were measured. Proliferation IC50 values of the conjugates without octreotide competition were also measured. The ratio of IC50 with octreotide competition and IC50 without octreotide competition is an indicator of whether activity is at least partially dependent on bind to the somatostatin receptor.

[1] = treated 2 hours, further incubated 70 hours, read-out: H524 IC50
[2] = read-out: H524 IC50+ 100 uM octreotide, 100 μM octreotide for 30 min, then conjugate 2 hours, 70 hours incubation

Structure (SMILES) | IC50 [1] [nM] | IC50 [2] [nM]
COc1cc2cc(c1Cl)N(C)C(=O)C[C@H](OC(=O)[C@H](C)N(C)C(=O)CCSSCCNC(=O)[C@@H]1CSSC[C@H](NC(=O)[C@H](N)Cc3ccccc3)C(=O)N[C@@H](Cc3ccc(O)cc3)C(=O)N[C@H](Cc3c[nH]c4ccccc34)C(=O)N[C@@H](CCCCN)C(=O)N[C@@H]([C@@H](C)O)C(=O)N1)[C@]1(C)O[C@H]1[C@H](C)[C@@H]1C[C@@](O)(NC(=O)O1)[C@H](OC)/C=C/C=C(\C)C2 [Conjugate 59] (H-[dF]CY[dW]KTC-{NH(CH2)2SS(DM1)}; disulfide 2-7) | 24 | 170
COc1cc2cc(c1Cl)N(C)C(=O)C[C@H](OC(=O)[C@H](C)N(C)C(=O)CCSSC[C@H](NC(=O)[C@@H]1CSSC[C@H](NC(=O)[C@H](N)Cc3ccccc3)C(=O)N[C@@H](Cc3ccc(O)cc3)C(=O)N[C@H](Cc3c[nH]c4ccccc34)C(=O)N[C@@H](CCCCN)C(=O)N[C@@H]([C@@H](C)O)C(=O)N1)C(=O)O)[C@]1(C)O[C@H]1[C@H](C)[C@@H]1C[C@@](O)(NC(=O)O1)[C@H](OC)/C=C/C=C(\C)C2 [Conjugate 61] | 89 | 274
COc1cc2cc(c1Cl)N(C)C(=O)C[C@H](OC(=O)[C@H](C)N(C)C(=O)CCSSC[C@H](NC(=O)[C@@H]1CSSC[C@H](NC(=O)[C@H](N)Cc3ccccc3)C(=O)N[C@@H](Cc3ccc(O)cc3)C(=O)N[C@H](Cc3c[nH]c4ccccc34)C(=O)N[C@@H](CCCCN)C(=O)N[C@@H]([C@@H](C)O)C(=O)N1)C(=O)NC1CCCCC1)[C@]1(C)O[C@H]1[C@H](C)[C@@H]1C[C@@](O)(NC(=O)O1)[C@H](OC)/C=C/C=C(\C)C2 [Conjugate 63] | 44 | 168
CCNC(=O)N[C@H](Cc1ccccc1)C(=O)N[C@H]1CSSC[C@@H](C(=O)N[C@H](C(=O)NCCSSCCC(=O)N(C)[C@@H](C)C(=O)O[C@H]2CC(=O)N(C)c3cc(cc(OC)c3Cl)C/C(C)=C/C=C/[C@@H](OC)[C@@]3(O)C[C@H](OC(=O)N3)[C@@H](C)[C@@H]3O[C@@]23C)[C@@H](C)O)NC(=O)[C@H]([C@@H](C)O)NC(=O)[C@H](CCCCN)NC(=O)[C@@H](Cc2c[nH]c3ccccc23)NC(=O)[C@H](Cc2ccc(O)cc2)NC1=O [Conjugate 65] | 30 | 229
COc1cc2cc(c1Cl)N(C)C(=O)C[C@H](OC(=O)[C@H](C)N(C)C(=O)CCSSCCC(=O)N[C@H](Cc1ccccc1)C(=O)N[C@H]1CSSC[C@@H](C(=O)N[C@@H](Cc3c[nH]c4ccccc34)C(N)=O)NC(=O)[C@H](C(C)C)NC(=O)[C@H](CCCCN)NC(=O)[C@@H](Cc3c[nH]c4ccccc34)NC(=O)[C@H](Cc3ccc(O)cc3)NC1=O)[C@]1(C)O[C@H]1[C@H](C)[C@@H]1C[C@@](O)(NC(=O)O1)[C@H](OC)/C=C/C=C(\C)C2 [Conjugate 70] ([Mpa](X1)[dF]CY[dW]KVCW-NH2; disulfide 3-8) | 317 | 417
COc1cc2cc(c1Cl)N(C)C(=O)C[C@H](OC(=O)[C@H](C)N(C)C(=O)CCSSCCC(=O)N[C@H](Cc1ccccc1)C(=O)N[C@H]1CSSC[C@@H](C(=O)N[C@H](C(=O)O)[C@@H](C)O)NC(=O)[C@H]([C@@H](C)O)NC(=O)[C@H](CCCCN)NC(=O)[C@@H](Cc3c[nH]c4ccccc34)NC(=O)[C@H](Cc3ccc(O)cc3)NC1=O)[C@]1(C)O[C@H]1[C@H](C)[C@@H]1C[C@@](O)(NC(=O)O1)[C@H](OC)/C=C/C=C(\C)C2 [Conjugate 74] | 549 | 562
COc1cc2cc(c1Cl)N(C)C(=O)C[C@H](OC(=O)[C@H](C)N(C)C(=O)CCSSC(C)CCN[C@H](Cc1ccccc1)C(=O)N[C@H]1CSSC[C@@H](C(=O)N[C@H](CO)[C@@H](C)O)NC(=O)[C@H]([C@@H](C)O)NC(=O)[C@H](CCCCN)NC(=O)[C@@H](Cc3c[nH]c4ccccc34)NC(=O)[C@H](Cc3ccccc3)NC1=O)[C@]1(C)O[C@H]1[C@H](C)[C@@H]1C[C@@](O)(NC(=O)O1)[C@H](OC)/C=C/C=C(\C)C2 (stereo partly drawn) [Conjugate 82] | 148 | 867
COc1cc2cc(c1Cl)N(C)C(=O)C[C@H](OC(=O)[C@H](C)N(C)C(=O)CCSSCCCN1CCN(CC(=O)N[C@H](Cc3ccccc3)C(=O)N[C@H]3CSSC[C@@H](C(=O)N[C@H](CO)[C@@H](C)O)NC(=O)[C@H]([C@@H](C)O)NC(=O)[C@H](CCCCN)NC(=O)[C@@H](Cc4c[nH]c5ccccc45)NC(=O)[C@H](Cc4ccccc4)NC3=O)CC1)[C@]1(C)O[C@H]1[C@H](C)[C@@H]1C[C@@](O)(NC(=O)O1)[C@H](OC)/C=C/C=C(\C)C2 [Conjugate 86] | 386 | 553
COc1cc2cc(c1Cl)N(C)C(=O)C[C@H](OC(=O)[C@H](C)N(C)C(=O)CCSSCCOCCOCCOCCOCCCN[C@H](Cc1ccccc1)C(=O)N[C@H]1CSSC[C@@H](C(=O)N[C@H](CO)[C@@H](C)O)NC(=O)[C@H]([C@@H](C)O)NC(=O)[C@H](CCCCN)NC(=O)[C@@H](Cc3c[nH]c4ccccc34)NC(=O)[C@H](Cc3ccccc3)NC1=O)[C@]1(C)O[C@H]1[C@H](C)[C@@H]1C[C@@](O)(NC(=O)O1)[C@H](OC)/C=C/C=C(\C)C2 [Conjugate 96] | 206 | 397
COc1cc2cc(c1Cl)N(C)C(=O)C[C@H](OC(=O)[C@H](C)N(C)C(=O)CCSSCCOCCOCCOCCOCCC(=O)N[C@H](Cc1ccccc1)C(=O)N[C@H]1CSSC[C@@H](C(=O)N[C@H](CO)[C@@H](C)O)NC(=O)[C@H]([C@@H](C)O)NC(=O)[C@H](CCCCN)NC(=O)[C@@H](Cc3c[nH]c4ccccc34)NC(=O)[C@H](Cc3ccccc3)NC1=O)[C@]1(C)O[C@H]1[C@H](C)[C@@H]1C[C@@](O)(NC(=O)O1)[C@H](OC)/C=C/C=C(\C)C2 [Conjugate 98] | 690 | 1120
COc1cc2cc(c1Cl)N(C)C(=O)C[C@H](OC(=O)[C@H](C)N(C)C(=O)CCSCCCN[C@H](Cc1ccccc1)C(=O)N[C@H]1CSSC[C@@H](C(=O)N[C@H](CO)[C@@H](C)O)NC(=O)[C@H]([C@@H](C)O)NC(=O)[C@H](CCCCN)NC(=O)[C@@H](Cc3c[nH]c4ccccc34)NC(=O)[C@H](Cc3ccccc3)NC1=O)[C@]1(C)O[C@H]1[C@H](C)[C@@H]1C[C@@](O)(NC(=O)O1)[C@H](OC)/C=C/C=C(\C)C2 [Conjugate 100] | 303 | 1060
CCCCCCCCCCC(CCN[C@H](Cc1ccccc1)C(=O)N[C@H]1CSSC[C@@H](C(=O)N[C@@H](Cc2c[nH]c3ccccc23)C(N)=O)NC(=O)[C@H]([C@@H](C)O)NC(=O)[C@H](CCCCN)NC(=O)[C@@H](Cc2c[nH]c3ccccc23)NC(=O)[C@H](Cc2ccc(O)cc2)NC1=O)SSCCC(=O)N(C)[C@@H](C)C(=O)O[C@H]1CC(=O)N(C)c2cc(cc(OC)c2Cl)C/C(C)=C/C=C/[C@@H](OC)[C@@]2(O)C[C@H](OC(=O)N2)[C@@H](C)[C@@H]2O[C@@]12C (stereo partly drawn) [Conjugate 102] | 335 | 579
COc1cc2cc(c1Cl)N(C)C(=O)C[C@H](OC(=O)[C@H](C)N(C)C(=O)CCSC1CC(=O)N(CC3CCC(C(=O)N[C@H](Cc4ccccc4)C(=O)N[C@H]4CSSC[C@@H](C(=O)N[C@H](CO)[C@@H](C)O)NC(=O)[C@H]([C@@H](C)O)NC(=O)[C@H](CCCCN)NC(=O)[C@@H](Cc5c[nH]c6ccccc56)NC(=O)[C@H](Cc5ccccc5)NC4=O)CC3)C1=O)[C@]1(C)O[C@H]1[C@H](C)[C@@H]1C[C@@](O)(NC(=O)O1)[C@H](OC)/C=C/C=C(\C)C2 (stereo partly drawn) [Conjugate 104] | 279 | 705
CCCCCCCCCCC(CCN[C@H](Cc1ccccc1)C(=O)N[C@H]1CSSC[C@@H](C(=O)N[C@@H](CO)[C@@H](C)O)NC(=O)[C@H]([C@@H](C)O)NC(=O)[C@H](CCCCN)NC(=O)[C@@H](Cc2c[nH]c3ccccc23)NC(=O)[C@H](Cc2ccccc2)NC1=O)SSCCC(=O)N(C)[C@@H](C)C(=O)O[C@H]1CC(=O)N(C)c2cc(cc(OC)c2Cl)C/C(C)=C/C=C/[C@@H](OC)[C@@]2(O)C[C@H](OC(=O)N2)[C@@H](C)[C@@H]2O[C@@]12C (stereo partly drawn) [Conjugate 106] | 400 | 666
COc1cc2cc(c1Cl)N(C)C(=O)C[C@H](OC(=O)[C@H](C)N(C)C(=O)CCSC1CC(=O)N(CC(=O)N[C@H](Cc3ccccc3)C(=O)N[C@H]3CSSC[C@@H](C(=O)N[C@H](CO)[C@@H](C)O)NC(=O)[C@H]([C@@H](C)O)NC(=O)[C@H](CCCCN)NC(=O)[C@@H](Cc4c[nH]c5ccccc45)NC(=O)[C@H](Cc4ccccc4)NC3=O)C1=O)[C@]1(C)O[C@H]1[C@H](C)[C@@H]1C[C@@](O)(NC(=O)O1)[C@H](OC)/C=C/C=C(\C)C2 (stereo partly drawn) [Conjugate 108] | 96 | 1280
